Assays:
TNBC tumor parenchyma = experiment: Histology, IHC and TUNEL of PDX tumor tissue; assay type: in vivo, mouse; conditions: for H&E staining: size and color intensities of tumor cells: 2 mg/Kg Bwt i.p.; for apoptosis in TNBC tumor (TUNEL staining): FIG. 14; for Ki-67 immunoreactivity in tumor parenchyma: p<0.0001 vs control
Description: FIG. 13 illustrates an embodiment of the present invention and illustrates the effects of SIM-1 and SIM-2 on the growth arrest of TNBC tumors. […] The higher magnification images were given below. (B) Area of 50 randomly selected cells (10 different images from n=5 mice/group) from three different groups were measured using polygon tool of ImageJ software and then the scatter histogram analysis was performed using GraphPad Prism 10 statistical software package. The significance of mean between groups (***p<0.001 versus control) was calculated by one-way ANOVA analysis (effector: treatment). (C) IHC staining of cell growth marker Ki-67 in vehicle-, SIM-1-, and SIM-2-treated tumors represents the cell growth property of tumor cells. […] Both hematoxylin-ir nuclei (total cells) and Ki-67-ir cells were counted in n=15 images per group, converted in percent scale, and then plotted as scatter histogram. ****p<0.0001 vs. control as derived by one-way ANOVA. (E) IHC staining of cell proliferation marker PCNA in three different groups. (F) Scatter histogram analysis of […] counted from n=15 images per group and then plotted as percent scale. […] (G) A gene array of 84 genes in a validated human breast cancer gene array (RT^2 Profiler™ PCR array; Cat #PAHS-131ZA; Qiagen) was conducted in cDNA samples extracted from TNBC tumors of vehicle, SIM-1- and SIM-2-treated (n=3) groups. The resultant gene expressions were converted in log scale and then compared with the vehicle in (G) SIM-1 and (H) SIM-2 treated groups as shown in scatter plots. […] (I) Validation of gene expressions of CCND1, CCND2, CCNE1, CDK2 genes were performed by real-time PCR analysis. (J) Upregulations of CDKN1A, and CDKN2A in SIM-1- and SIM-2-treated groups were validated by real-time PCR analyses. were Significance of mean calculated by one-way ANOVA resulted […] versus respective vehicle-groups. The results are confirmed after three different experiments.
(A) TUNEL staining to monitor apoptosis of tumor cells among all groups followed by (B) counting of TUNEL-ir cells from n=15 images per group and then plotting a scatter histogram analysis. ****p<0.0001 vs. control as derived by one-way ANOVA. (C) A protein array of 35 different apoptosis-related proteins (Human apoptosis array; Cat #ARY009; R&D Systems) was conducted in the tumor tissue extracts of three different groups. Red, purple, and green squares represent the expressions of Bad, Bax, and Cytochrome C proteins respectively. Black enclosures represent the positive controls. (D) Heatmap analysis summarizes the expressions of breast cancer 84 validated breast cancer-associated genes (RT^2 Profiler™ PCR array; Cat #PAHS-131ZA; Qiagen). These genes critically regulate the growth and apoptosis of breast cancer cells. The details of the genes can be found here (geneglobe.qiagen.com/us/product-groups/rt2-profiler-pcr-arravs/PAHS-131Z). Scatter plot analyses in FIG. 13G and FIG. 13H was performed to compare the relative expressions of apoptotic genes and growth suppressive genes between the vehicle- and SIM-1-treated as well as the vehicle- and SIM-2-treated groups.
Immunohistochemical (IHC) analyses. Tumor tissues were embedded in paraffin, cut at a thickness of 5 μm in Leica microtome, attached to a charged slide, dried in a dry bath at 37° C. for at least 48 hrs., and then progressed for IHC analysis. The IHC analysis was performed where, briefly, sections were deparaffinized by xylene and rehydrated by ethanol gradient (100%>70%>50%>20%; v/v) followed by complete rehydration by water. […]

STAT3 = STAT3 (Homo sapiens, UniProt P40763); experiment: Protein thermal shift assay with recombinant STAT3; assay type: binding; parameters: purchased Active motif 81095; conditions: for ΔTm of STAT3: cut-off 2° C.; for lowest concentration that significantly (>2° C.) shifted the melt curve of STAT3: as low as; for EC50: non-linear hyperbolic binding curve, read-out: EC50 (half-maximal binding, maximum fluorescence versus dose)
Description: FIG. 5 illustrates an embodiment of the present invention and illustrates evaluations of SIM-1 and SIM-2 as STAT3 inhibitors. (A) Protein thermal shift assay was performed to assess the melting of purified recombinant STAT3 (blue; 0.5 μg protein) (Tm=melting temperature=68.88° C.). The representative melting curves were derived after adding SIM-1 (red; 4 nM), SIM-2 (purple; 8 nM), and positive control stattic (grey; 20 nM) to the STAT3 protein. The differences of melting temperature (ΔTm) between pure protein and protein+ligands are −4.54° C., −4.16° C., and 0.39° C. for SIM-1, SIM-2, and stattic (ΔTm^cut-off>2° C.). (B) Phospho protein array analysis was conducted in cell lysates of MDA-MB-468 cells treated with DMSO control (top left), 25 ng/mL EGF (top right), EGF+10 nM SIM-1 (bottom left), and EGF+SIM-2 (bottom right) for 24 hrs. Each colored arrowhead represents a specific phosphoprotein, and the description was added in the bottom of array images. S=serine and Y=tyrosine. Relative levels of (C) Tyrosine 705 (Y705) phosphorylated STAT3, (D) Serine 727 (S727) phosphorylated STAT3, (E) Tyrosine 693 (Y693) phosphorylated STAT4, (F) Tyrosine 694 ([…]) phosphorylated STAT5A had been derived after normalizing the spot densities (n=5) with respective β-actin spots. Results are mean±SD of five different spot analyses. One-way ANOVA was adopted to test the significance of mean between groups at **p<0.01, and ****p<0.0001. Ns=no significance. Thermal shift assays of increasing doses of (G) SIM-1, (H) SIM-2, and (I) stattic with purified STAT1 protein (0.5 μg protein). The respective ΔTm values were given with the plot after matching with the color code. Similarly, full-length STAT5b protein melting was assessed with (J) SIM-1, (K) SIM-2, and (L) stattic. Results are confirmed after three different experiments.
FIG. 6 illustrates an embodiment of the present invention and illustrates dose-dependent curves of maximum fluorescence for SIM1 and SIM2. Protein thermal shift assay of recombinant STAT3 was performed with increasing doses of (A) SIM-1, (B) SIM-2, and (C) positive control “Stattic”. The maximum fluorescence for each dose was derived and then plotted in GraphPad Prism software with respective doses. The resultant non-liner hyperbolic curves provide half-maximal binding (EC50) for all three compounds.
This example provides a representative study of the present disclosure to test if SIM1 and SIM2 served as ligands of STAT3. Therefore, the present invention adopted a protein thermal shift assay in which […] of recombinant human STAT3 protein (active motif) was incubated with increasing doses of SIM1 and SIM2 followed by the execution of melting analysis starting from 25 to 95° C. as described elsewhere.

STAT3, sequence (P40763 whole entry): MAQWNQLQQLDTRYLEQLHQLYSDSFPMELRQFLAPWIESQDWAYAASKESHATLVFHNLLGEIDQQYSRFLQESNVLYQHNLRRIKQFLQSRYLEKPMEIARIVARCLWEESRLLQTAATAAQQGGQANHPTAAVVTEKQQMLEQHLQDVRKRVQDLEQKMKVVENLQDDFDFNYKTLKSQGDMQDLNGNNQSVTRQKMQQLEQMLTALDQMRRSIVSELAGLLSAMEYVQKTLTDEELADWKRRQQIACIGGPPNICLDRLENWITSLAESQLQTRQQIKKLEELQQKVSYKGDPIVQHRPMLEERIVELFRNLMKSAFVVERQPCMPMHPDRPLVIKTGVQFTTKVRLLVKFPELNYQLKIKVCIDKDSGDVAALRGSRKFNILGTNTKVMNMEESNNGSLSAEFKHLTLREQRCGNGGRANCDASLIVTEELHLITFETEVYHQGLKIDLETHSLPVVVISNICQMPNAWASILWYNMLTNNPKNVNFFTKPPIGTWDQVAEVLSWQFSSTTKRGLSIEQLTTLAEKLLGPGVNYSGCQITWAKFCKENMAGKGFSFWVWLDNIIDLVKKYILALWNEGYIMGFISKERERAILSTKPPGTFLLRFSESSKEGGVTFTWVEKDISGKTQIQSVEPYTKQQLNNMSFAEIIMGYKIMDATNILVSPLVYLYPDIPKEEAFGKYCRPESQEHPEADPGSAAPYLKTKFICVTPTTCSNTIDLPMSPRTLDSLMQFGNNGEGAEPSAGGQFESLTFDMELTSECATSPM

SMILES	H&E staining: size and color intensities of tumor cells (TNBC tumor parenchyma)	apoptosis in TNBC tumor (TUNEL staining) (TNBC tumor parenchyma)	Ki-67 immunoreactivity in tumor parenchyma (TNBC tumor parenchyma)	ΔTm of STAT3 (STAT3; 6 nM ligand)	ΔTm of STAT3 (STAT3; 8 nM ligand (FIG. 5A legend))	lowest concentration that significantly (>2° C.) shifted the melt curve of STAT3 (STAT3)	EC50 (STAT3)	ΔTm of STAT3 (STAT3; 4 nM ligand)
CCOC(=O)c1c(NC(C)=O)sc2c(Cl)c(/C=N/O)ccc12 [SIM-2, ethyl 2-acetamido-7-chloro-6-(hydroxyiminomethyl)-1-benzothiophene-3-carboxylate]	strongly reduced the size and color intensities of cells	weakly induced apoptosis	strong reduction	−4.16 °C	−4.16 °C	5 nM	5.26 nM	–
O=C(O)CCC(=O)NCc1csc2ccc(Cl)cc12 [SIM-1, 4-[(5-chloro-1-benzothiophen-3-yl)methylamino]-4-oxobutanoic acid]	strongly reduced the size and color intensities of cells	weakly induced apoptosis	strong reduction	–	–	5 nM	4.58 nM	−4.54 °C

Reference: US20250255847A1, “[…]s: Novel Drugs for Triple Negative Breast Cancer” (SIMMARON RSEARCH INC, priority 2024, published 2025)
